Data on 1 compound can be found in patent US6346610B1, “Process for preparing antifungal V-28-3M” (Ajinomoto Co., Ltd., priority 1997, dated 2002).

Data set [1] relates to animal cells. Conditions: background statement, JP-A-63-218686 and JP-A-3-81225; cited from earlier work.
Data set [2] in a line: antimycotic activity of V-28-3M. Conditions: V-28-3M obtained by Example 5, compared with V-28-3M described in JP-A-3-81225.
For data set [3] the following is noted: background statement, JP-A-63-218686 and JP-A-3-81225; cited from earlier work.

The structures appear in SMILES notation. Like-named read-outs stand apart in the source and are kept apart here.

As for `COC(=O)C1C(O)CC2(O)CC(O)CC(O)CC(O)CC(O)CC(=O)CC(O)CC(=O)OC(C(C)CCC(O)CC(=O)c3ccc(N)cc3)C(C)\C=C/C=C\C=C\C=C\C=C\C=C\C=C\C(OC3OC(C)C(O)C(N)C3O)CC1O2` (stereo not drawn) [Example V-28-3M, V-28-3M], the “toxicity for animal cells” value in data set [1] is reported as “low”. Besides, the antimycotic activity result is “the same result was also obtained” in data set [2] and “high” in data set [3].
